{"source": "patent US6811967B2", "about": "(The University of Manitoba, priority 2001, dated 2004)", "origin": "cited, not measured here", "key": {"human SSAT": {"biological_target": "T1, human SSAT (Homo sapiens, UniProt P21673)", "T1 construct": "host or cells: E. coli", "T1 sequence (P21673 whole entry)": "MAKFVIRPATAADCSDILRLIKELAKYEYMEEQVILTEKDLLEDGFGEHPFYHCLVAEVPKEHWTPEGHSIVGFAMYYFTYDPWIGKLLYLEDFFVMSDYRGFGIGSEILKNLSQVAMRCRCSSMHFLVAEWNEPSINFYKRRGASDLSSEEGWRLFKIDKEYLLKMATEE", "settings": "human SSAT expressed in E. coli (Parry et al. 1995)"}, "[1]": {"settings": "Sprague-Dawley rats, same therapeutic dose (Goralski et al. 1999)"}, "[2]": {"settings": "weak base, primary amine"}}}
{"smiles": "CCCCNCCCN", "note": "[N-(n-butyl)-1,3-diaminopropane]", "values": [{"measurement": "acetylation by SSAT", "setting": "human SSAT", "value": "acetylated by SSAT"}]}
{"smiles": "N=C(N)NCCCCCCC(=O)NC(O)C(=O)NCCCCNCCCN", "note": "(centres unmarked) [1-deoxyspergualin]", "values": [{"measurement": "acetylation by SSAT", "setting": "human SSAT", "value": "acetylated by SSAT"}]}
{"smiles": "NC12CC3CC(CC(C3)C1)C2", "note": "[amantadine, 1-adamantanamine]", "values": [{"measurement": "urinary excretion of acetylamantadine", "setting": "[1]", "value": "did not excrete acetylamantadine"}, {"measurement": "pKa", "setting": "[2]", "value": 10.1}]}
{"smiles": "NCCCNCCS", "note": "[WR1065, S-2-(3-aminopropylamino) ethanethiol]", "values": [{"measurement": "acetylation by SSAT", "setting": "human SSAT", "value": "acetylated by SSAT"}]}
